“And” between values parts separate entries of the source, which are not always exact repeats. Equal entries are not always repeated. Where two headings read alike, the source gives them in different places. Values belong to the substance of their own block, whether it stands above or below them.
How the values were obtained:
[1] = cited from earlier work
[2] = [3H]IP3-binding activity, Scatchard plot analysis
Method: The IP3-binding activities of these fusion proteins were measured mainly by the method of Yoshikawa et al (1996).
Each fusion protein (IP3 sponge) (0.2 μg) was mixed with 100 μl of binding buffer-α (50 mM Tris-HCl (pH 8.0 at 4° C.), 1 mM EDTA, 1 mM β-mercaptoethanol) that contained 9.6 nM D-myo-[^3H](1,4,5)IP3 (777 GBq/mmol; DuPont NEN) (hereinafter, abbreviated as “[^3H]IP3”) and various concentrations of non-labeled D-myo-(1,4,5)IP3 (Dojindo) (hereinafter, abbreviated as “cold IP3”). The mixture was left to stand on ice for 10 minutes. To the mixture, 4 μl of 50 mg/ml γ-globulin (Sigma) (final concentration: 1 mg/ml) and 100 μl of 30% PEG 6000 (Sigma)/binding buffer-a solution (final concentration: 15%) were added. The resultant mixture was left to stand on ice for 5 minutes, and then centrifuged at 10,000×g at 2° C. for 5 minutes to collect polypeptide/PEG complex. PEG-precipitated [^3H]IP3-binding polypeptide was well solubilized with 180 μl solubilizer Solvable (DuPont NEN). The resultant was neutralized with 18 μl glacial acetic acid and then added to 5 ml liquid scintillation counter (Atomlight [DuPont NEN]) to measure the radioactivity (first radioactivity). Non-specific binding of each protein was determined by measuring the second radioactivity in the presence of 2 μM or 10 μM cold IP3. Then, a specific binding value of each protein was obtained by subtracting the second radioactivity (non-specific binding value) from the first radioactivity values.
Scatchard plot analysis was conducted under the following conditions. For low-affinity polypetides (G224-m30 and control GST), the binding experiment was conducted in 100 μl binding buffer a by adding 9.6 nM [^3H]IP3 (DuPont NEN) and 10–20 nM of cold IP3 to 2 μg of IP3-binding polypeptide, and by adding 9.6 nM [^3H]IP3 (DuPont NEN) and 50 nM-2 μM of cold IP3 to 0.01 μg IP3-binding polypeptide. For high-affinity IP3 sponges (G224 and G224-m49), binding experiment was conducted with 0.02 μg IP3 sponges at [^3H]-IP3 concentrations of 0.15, 0.3, 0.6, 1.2, 2.4, 4.8 and 9.6 nM without adding cold IP3.

[3] = target: T1, IP3 receptor of cerebellar microsome (Mus musculus, UniProt P11881); assay: Inhibition of [3H]IP3 binding of cerebellar microsome by IP3 sponges; settings: 40 μg cerebellar microsome, 9.6 nM [3H]IP3, 100 μl (FIG. 4)
T1 construct: Mouse cerebellum is a tissue that is rich in IP3 receptor; from tissue; host or cells: mouse (ddY) cerebellum, microsomal fraction
Method: The inhibition effects of the IP3-binding polypeptides (IP3 sponges) on [H]IP3-binding activity of cerebellar microsome was analyzed as follows.
A microsomal fraction was prepared from the cerebella of mice ddY (Nippon SLC) mainly by following the method of Nakada et al. (Nakada S. et al., Biochem. J. 277:125–131, 1991). In 100 μl of binding buffer α, various concentrations of the IP3 sponges were added respectively to see the changes in the binding between the cerebellar microsome (40 μg) and 9.6 nM [^3H]-IP3 according to the above method (see Scatchard plot analysis).
Mouse cerebellum is a tissue that is rich in IP3 receptor and whose microsomal fraction has a [^3H]IP3-binding activity which is at least 50 times higher than those in other tissues (Maeda et al., 1990 (supra)). […] It was calculated that, there were about 0.92 pmol of IP3-binding site of cerebellum IP3 receptor and 0.96 pmol of [^3H]IP3 present in the 100 μl solution.

[4] = target: T2, IP3 receptor on cerebellar microsome (Mus musculus, UniProt P11881); assay: Inhibition of IP3-induced Ca2+ release (IICR) from cerebellar microsome, fura-2; type: biochemical
T2 construct: Mouse cerebellum is a tissue that is rich in IP3 receptor; from tissue; host or cells: mouse (ddY) cerebellum, microsomal fraction
T2 sequence (P11881 whole entry N1264K/P2675L): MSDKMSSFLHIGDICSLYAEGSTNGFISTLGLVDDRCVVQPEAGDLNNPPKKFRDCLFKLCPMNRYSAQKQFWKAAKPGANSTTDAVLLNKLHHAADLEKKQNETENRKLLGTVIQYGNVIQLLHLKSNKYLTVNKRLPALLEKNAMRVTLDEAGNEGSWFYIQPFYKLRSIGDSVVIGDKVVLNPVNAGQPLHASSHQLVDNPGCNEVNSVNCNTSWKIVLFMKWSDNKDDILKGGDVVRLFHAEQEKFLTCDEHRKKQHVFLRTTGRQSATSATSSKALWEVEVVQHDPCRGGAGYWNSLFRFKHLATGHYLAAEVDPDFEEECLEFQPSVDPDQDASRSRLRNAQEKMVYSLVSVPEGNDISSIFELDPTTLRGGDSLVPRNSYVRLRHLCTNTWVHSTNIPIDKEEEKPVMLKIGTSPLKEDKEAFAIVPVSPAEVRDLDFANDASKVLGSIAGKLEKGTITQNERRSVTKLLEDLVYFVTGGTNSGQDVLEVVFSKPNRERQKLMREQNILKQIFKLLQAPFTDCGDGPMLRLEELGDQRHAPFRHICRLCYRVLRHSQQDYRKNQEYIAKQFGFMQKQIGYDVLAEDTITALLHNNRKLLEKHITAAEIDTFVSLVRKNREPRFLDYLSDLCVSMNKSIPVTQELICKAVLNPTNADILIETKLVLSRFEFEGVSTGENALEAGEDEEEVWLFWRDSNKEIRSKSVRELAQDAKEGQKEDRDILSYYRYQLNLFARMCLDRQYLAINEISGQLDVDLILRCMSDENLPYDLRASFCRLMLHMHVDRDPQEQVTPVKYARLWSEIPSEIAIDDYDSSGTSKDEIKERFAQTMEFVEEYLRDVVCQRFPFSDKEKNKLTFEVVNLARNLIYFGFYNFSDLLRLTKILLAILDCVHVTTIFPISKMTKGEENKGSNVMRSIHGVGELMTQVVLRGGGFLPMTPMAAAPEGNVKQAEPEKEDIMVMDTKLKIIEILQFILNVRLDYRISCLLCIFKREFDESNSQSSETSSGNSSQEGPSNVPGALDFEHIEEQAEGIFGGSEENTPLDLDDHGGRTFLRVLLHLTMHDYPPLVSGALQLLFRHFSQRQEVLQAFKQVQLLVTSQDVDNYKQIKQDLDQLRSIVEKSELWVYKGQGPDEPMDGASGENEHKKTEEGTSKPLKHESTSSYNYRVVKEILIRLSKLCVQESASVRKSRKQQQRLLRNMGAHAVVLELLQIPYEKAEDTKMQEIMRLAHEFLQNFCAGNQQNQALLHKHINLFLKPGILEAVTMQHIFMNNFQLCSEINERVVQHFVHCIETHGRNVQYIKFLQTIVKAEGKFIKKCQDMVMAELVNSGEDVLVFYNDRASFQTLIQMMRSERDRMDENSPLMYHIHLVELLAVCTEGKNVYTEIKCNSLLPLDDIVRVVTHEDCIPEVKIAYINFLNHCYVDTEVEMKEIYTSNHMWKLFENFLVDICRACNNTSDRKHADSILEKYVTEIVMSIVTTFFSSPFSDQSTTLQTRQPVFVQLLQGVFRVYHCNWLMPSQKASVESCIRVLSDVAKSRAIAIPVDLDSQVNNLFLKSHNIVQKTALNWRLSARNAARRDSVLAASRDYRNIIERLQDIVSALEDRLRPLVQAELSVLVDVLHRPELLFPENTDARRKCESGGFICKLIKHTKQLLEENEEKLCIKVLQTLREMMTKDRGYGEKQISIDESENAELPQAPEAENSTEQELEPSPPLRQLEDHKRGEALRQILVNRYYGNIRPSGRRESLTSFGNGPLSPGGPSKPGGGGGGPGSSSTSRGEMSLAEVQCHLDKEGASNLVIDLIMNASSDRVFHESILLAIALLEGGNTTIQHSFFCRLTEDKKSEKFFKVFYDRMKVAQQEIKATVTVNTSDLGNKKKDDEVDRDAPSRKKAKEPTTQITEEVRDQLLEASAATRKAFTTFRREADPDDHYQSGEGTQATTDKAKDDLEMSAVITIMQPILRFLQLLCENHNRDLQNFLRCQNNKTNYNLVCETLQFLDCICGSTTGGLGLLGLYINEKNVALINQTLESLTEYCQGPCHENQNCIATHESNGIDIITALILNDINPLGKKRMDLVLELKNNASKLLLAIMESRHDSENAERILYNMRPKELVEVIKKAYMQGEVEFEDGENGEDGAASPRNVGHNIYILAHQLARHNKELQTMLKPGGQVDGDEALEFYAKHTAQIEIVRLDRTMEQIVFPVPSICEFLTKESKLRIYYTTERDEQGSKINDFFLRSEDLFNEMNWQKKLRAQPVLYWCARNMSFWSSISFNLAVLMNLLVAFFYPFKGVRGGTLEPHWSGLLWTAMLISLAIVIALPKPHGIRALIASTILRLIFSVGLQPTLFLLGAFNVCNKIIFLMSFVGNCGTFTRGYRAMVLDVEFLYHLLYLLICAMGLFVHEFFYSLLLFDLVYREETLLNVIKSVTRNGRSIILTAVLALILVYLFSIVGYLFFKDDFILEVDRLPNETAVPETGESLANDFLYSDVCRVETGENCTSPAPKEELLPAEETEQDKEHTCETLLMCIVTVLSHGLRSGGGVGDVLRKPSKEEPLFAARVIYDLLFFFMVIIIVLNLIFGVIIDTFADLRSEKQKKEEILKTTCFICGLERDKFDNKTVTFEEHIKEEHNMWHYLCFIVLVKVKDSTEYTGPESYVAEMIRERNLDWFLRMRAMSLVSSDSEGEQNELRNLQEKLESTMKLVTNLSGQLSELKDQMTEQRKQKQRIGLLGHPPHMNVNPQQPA
Method: To conduct a test of inhibiting IP3-induced Ca^2+ release, a microsomal fraction was prepared from mouse cerebellum as described in Example 3. The fraction was suspended in Buffer B, dispensed, and stored at −80° C. until it was used.
Composition of Buffer B was 110 mM KCl, 10 mM NaCl, 5 mM KH2PO4, 1 mM DDT, and 50 mM HEPES-KOH (pH 7.2) (containing a cocktail of protease inhibitors [0.1 mM PMSF, 10 μM leupeptin, 10 μM pepstatin A, 10 μM E-64] and 2 mM MgCl2).
An IP3-induced Ca^2+ release activity of cerebellar microsome was determined by using fura-2 (Molecular Probe) as a fluorescent Ca^2+ indicator. Specifically, excitations upon addition of IP3 at two wavelengths (340 nm and 380 nm) were measured with fluorescence spectrophotometer CAF110 (Nihon Bunko) to see the change in the fluorescent intensity ratio (F340/F380) at 500 nm.
IP3-induced Ca^2+ release from the cerebellar microsome is generally EC50=100–200 nM IP3. Cerebellar microsome (100 μg) was mixed with 500 μl of a release buffer (Buffer B containing 1 mM MgCl2, 2 μM fura-2, 1 mM DTT, 10 mM creatine phosphate, 40 U/ml creatine kinase, 1 μg/ml oligomycin, and the cocktail of protease inhibitors) in a measurement cuvette with a stirrer bar. The following reaction was conducted at 30° C. while constantly stirring with the stirrer bar.
One mM of ATP was added to the mixture in the cuvette to activate Ca^2+ pumping (Ca^2+-ATPase), whereby Ca^2+ was incorporated into the inner space of microsome (Ca^2+ loading). Ca^2+ loading was confirmed by monitoring until the decrease of fura-2 fluorescent level became constant. The change in the fura-2 fluorescent intensity ratio was measured (F340/F380) at a subthreshold level.
The effect of IP3 sponge on inhibiting IP3-induced Ca^2+ release activity of cerebellar microsome was analyzed as follows. After the addition of ATP, the curve of fura-2 fluorescent intensity was monitored until the decrease became constant. Then, various concentrations of IP3 sponges were added. After 1 min., 50 nM to 1 μM of IP3 was added to the reaction mixture to observe the change of fura-2 fluorescent intensity induced by the IP3.
The IP3 sponge concentration dependency was determined as follows. High affinity polypeptide G224 of 3.125, 6.25, 12.5, 25, 50, 100, 200 μg/ml were added to the reaction mixture, respectively. After about 1 min., 100 nM of IP3 was added to measure the Ca^2+ release activity induced by the IP3. The concentration dependency of low affinity polypeptide G224-m30 was determined by adding G224-m30 of 200, 400 and 500 μg/ml. After about 1 min., 100 nM of IP3 was added to measure the Ca^2+ release activity induced by the IP3. In addition, G224-m30 of 500 μg/ml was also added, and after about 1 min., 50 nM of IP3 was added to measure the Ca^2+ release activity induced by the IP3.

[5] = [3H]IP3-binding activity, Scatchard plot analysis; remark: listed apart in the source
[6] = purified protein, [3H]IP3 binding
[7] = purified IP3 receptor, Maeda et al. 1990

Substance: Amino acid region 224–579: 356-residue polypeptide almost corresponding to the IP3-binding core region
Kd ([1]; Yoshikawa et al. 1996): 2.3 nM

binding to (1,4,5)IP3 and (2,4,5)IP3 [2]: binds well | Kd ([2]; purified GST fusion protein (FIG. 3A, 3B)): 0.083 nM | Bmax ([2]; purified protein): 1.6 pmol/μg purified protein | affinity, times higher than that of polypeptide T734 ([2]; relative to T734): 500 times | IC50 of IP3-binding inhibition [3]: about 10 μg/ml | concentration required for 50% inhibition of IP3-induced Ca2+ release ([4]; 100 nM IP3 (FIG. 7)): about 20 μg/ml | inhibition of IP3-induced Ca2+ release ([4]; 100 μg/ml, 100 nM IP3 (FIG. 6F)): almost completely inhibited
Substance: G224: fusion polypeptide of GST and amino acids 224–604 (M-224 to K-604) of IP3 receptor

Bmax ([2]; purified protein): 3.0 pmol/μg purified protein | Kd [2, 6]: 330 nM | Kd ([2]; purified protein, [3H]IP3 binding, listed as G224-m30): ~330 nM | IC50 of IP3-binding inhibition [3]: 100 mg/L | effect on inhibiting Ca2+ release versus control ([4]; 500 μg/ml, 50 nM IP3): Little difference | inhibiting effect on Ca2+ release ([4]; 500 μg/ml, 100 nM IP3): no inhibiting effect
Substance: G224m30: G224 introduced with K508A mutation; low affinity IP3-binding polypeptide

activity, times that of the original T604 ([2]; relative to T604): about 3 times
Substance: N4-T604: protein obtained by deleting amino acids 1–223 of T604; amino acids 224–604

Substance: Purified IP3R: purified natural IP3 receptor, Maeda et al. 1990
Bmax [1, 7]: 2.1 pmol/μg purified protein | Kd [1, 7]: 83 nM

Kd [2, 6]: 7.6 nM | Kd ([5]; 3 μg T604 soluble fraction, 9.6 nM [3H]IP3, cold IP3 competition (FIG. 2C)): 45 ± 7.6 nM | Kd ([5]; crude cell lysate / E. coli soluble fraction, 9.6 nM [3H]IP3 competed with cold IP3): 45 nM
Substance: T604: polypeptide of amino acids 1–604 (M-1 to K-604) of mouse Type-1 IP3 receptor
Bmax ([5]; E. coli soluble fraction): 690 pmol/mg protein and 690±64 pmol/mg protein

Substance: T734: N-terminal 734 amino acids of mouse Type-1 IP3 receptor (mIP3R1)
Bmax ([1]; E. coli soluble fraction, Yoshikawa et al. 1996): 46 pmol/mg protein | Kd ([1]; crude cell lysates, Yoshikawa et al. 1996): 50 ± 2.4 nM
